{"source": "paper PMC5127787", "about": "(Frontiers in Microbiology, 2016)", "target": "RecA (Escherichia coli, UniProt P0A7G6)", "sequence (P0A7G6 2-353)": "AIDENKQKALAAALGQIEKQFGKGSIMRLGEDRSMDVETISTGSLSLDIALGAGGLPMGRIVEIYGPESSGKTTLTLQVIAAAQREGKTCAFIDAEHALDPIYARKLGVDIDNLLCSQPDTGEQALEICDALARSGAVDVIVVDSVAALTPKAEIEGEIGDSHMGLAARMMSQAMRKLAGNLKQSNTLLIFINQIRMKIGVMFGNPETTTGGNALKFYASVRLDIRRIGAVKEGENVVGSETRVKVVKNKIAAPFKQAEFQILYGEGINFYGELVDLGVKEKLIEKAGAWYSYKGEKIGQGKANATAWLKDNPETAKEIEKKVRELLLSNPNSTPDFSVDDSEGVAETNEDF", "test": "biochemical", "data": [{"smiles": "CN1CCN(c2ccc(N3C(=O)C=CC3=O)cc2)CC1", "note": "[AHU3]", "values": [{"measurement": "IC50", "value": 7.72, "unit": "µM"}]}]}
